Assay results reported in patent US9890126B2 (priority 2012, dated 2018).
Marks after values point to notes of the source that are not given here.

target: IspF (Burkholderia pseudomallei, UniProt Q3JRA0); test: biochemical; format: binding; details: not given
Sequence (Q3JRA0 whole entry, looked up): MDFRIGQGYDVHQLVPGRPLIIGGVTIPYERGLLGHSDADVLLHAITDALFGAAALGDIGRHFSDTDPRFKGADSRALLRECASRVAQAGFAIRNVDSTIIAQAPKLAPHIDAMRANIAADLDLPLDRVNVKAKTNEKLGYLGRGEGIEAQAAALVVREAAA

Row | SMILES | Kd
1 | Nc1ccn([C@@H]2O[C@H](CNC(=O)c3ccncc3)[C@@H](O)[C@H]2O)c(=O)n1 [HGN-0005] | 176 µM
2 | Oc1ccc(-c2cncn2Cc2ccco2)cc1 [HGN-0019] | 380 µM
3 | Oc1ccc(-c2cncn2CCc2c[nH]c3ccccc23)cc1 [HGN-0020] | 204 µM
4 | Oc1ccc(CCn2cncc2-c2ccc(O)cc2)cc1 [HGN-0048] | 486 µM

same assay, conditions: pH 7.4

Row | SMILES | Kd
5 | NC(=O)c1c[nH]nc1NC(=O)c1c[nH]c2ncccc12 [HGN-0002] | not soluble
6 | O=C([O-])c1cnc(Nc2ccc(-c3ccncc3)cc2)nc1[O-].[Na+].[Na+] [HGN-0013] | non-specific
7 | CC(C)n1cncc1-c1ccc(O)cc1 [HGN-0018] | no binding
8 | O=C(O)c1cnc(Nc2ccc(-c3ccccc3)cc2)[nH]c1=O [HGN-0035, 2-((1,1′-biphenyl)-4-ylamino)-6-oxo-1,6-dihydropyrimidine-5-carboxylic acid] | not soluble
9 | CCOC(=O)c1cnc(Nc2ccc(N3CCOCC3)cc2)[nH]c1=O [HGN-0037] | not soluble
10 | CCOC(=O)c1cnc(NCCc2ccc(Cl)cc2)[nH]c1=O [HGN-0038, Ethyl 2-((4-chlorophenethyl)amino)-6-oxo-1,6-dihydropyrimidine-5-carboxylate] | not soluble
11 | CCOC(=O)c1cnc(Nc2cccc(-c3ccccc3)c2)[nH]c1=O [HGN-0039] | non specific
12 | Oc1ccc(-c2cncn2CCc2ccccc2)cc1 [HGN-0052] | no binding
13 | Oc1ccc(-n2ccnc2)cc1 [HGN-0056] | no binding
14 | OC(Cn1cnc(-c2ccccc2)c1-c1ccccc1)c1ccccc1 (centres unmarked) [HGN-0060] | not soluble
15 | Cn1ccnc1C(O)Cc1ccccc1 (centres unmarked) [HGN-0061] | no binding
16 | CC(c1ccccc1)C(O)c1nccn1-c1ccccc1 (centres unmarked) [HGN-0062] | no binding

tested on: Burkholderia; test: not given; details: cells printing symbol L

Row | SMILES | % Growth Inhibition Endpoint (24 h)
17 | CCOC(=O)c1cnc(Nc2ccc(N3CCOCC3)cc2)[nH]c1=O [HGN-0037] | L^c
18 | Oc1ccc(-c2cncn2Cc2cccc(Cl)c2)cc1 [HGN-0090] | L^c
19 | Oc1ccc(-c2cncn2Cc2ccccc2Cl)cc1 [HGN-0091] | L^c
20 | Oc1ccc(-c2cncn2Cc2ccc(Cl)cc2)cc1 [HGN-0094] | L^c
21 | Oc1ccc(-c2cncn2CCc2ccccc2Cl)cc1 [HGN-0096] | L^c
22 | Oc1ccc(-c2cncn2CCc2ccc(Cl)c(Cl)c2)cc1 [HGN-0100] | L^c
23 | Oc1ccc(-c2cncn2CCc2cccc(Cl)c2)cc1 [HGN-0108] | L^c

same assay, conditions: concentration not given

Row | SMILES | inhibition against Burkholderia
24 | Oc1ccc(-c2cncn2CCc2ccc(F)cc2)cc1 [HGN-0095] | 88.3%

same assay, conditions: relative to DMSO control; 0.00 = growth with inhibitor equal to or greater than DMSO control

Row | SMILES | % Growth Inhibition Endpoint (24 h) | % Growth Inhibition Growth Curve
25 | Oc1ccc(-c2cncn2CCc2c(Cl)cccc2Cl)cc1 [HGN0098] | 0.00^b % | 
26 | NC(=O)c1c[nH]nc1NC(=O)c1cncs1 [HGN-0004] | 0.00^b % | 
27 | Nc1ccn([C@@H]2O[C@H](CNC(=O)c3ccncc3)[C@@H](O)[C@H]2O)c(=O)n1 [HGN-0005] |  | 0.00^b %
28 | Nc1ccn([C@@H]2O[C@H](CNC(=O)c3cn4ccsc4n3)[C@@H](O)[C@H]2O)c(=O)n1 [HGN-0006] | 0.00^b % | 
29 | Nc1ccn([C@@H]2O[C@H](CNC(=O)c3ccnc4nc[nH]c34)[C@@H](O)[C@H]2O)c(=O)n1 [HGN-0007] | 0.00^b % | 
30 | Nc1ccn([C@@H]2O[C@H](CNC(=O)c3cscn3)[C@@H](O)[C@H]2O)c(=O)n1 [HGN-0008] | 0.00^b % | 
31 | NC(=O)c1c[nH]nc1NC(=O)Cc1cn2ccsc2n1 [HGN-0009] | 0.00^b % | 
32 | NC(=O)c1c[nH]nc1NC(=O)c1cnc2sccn12 [HGN-0010] | 7.22 ± 4.24% | 
33 | O=C([O-])c1cnc(Nc2ccc(-c3ccncc3)cc2)nc1[O-].[Na+].[Na+] [HGN-0013] |  | 6.26 ± 1.00%
34 | O=C([O-])c1cnc(Nc2ccc(Br)cc2)nc1[O-].[Na+].[Na+] [HGN-0014] | 15.52 ± 0.41% | 
35 | CCOC(=O)c1cnc(Nc2ccc(-c3ccncc3)cc2)[nH]c1=O [HGN-0015] |  | 14.43 ± 2.38%
36 | CCOC(=O)c1cnc(NCC2CCCO2)[nH]c1=O (centres unmarked) [HGN-0017, ethyl 6-oxo-2-(((tetrahydrofuran-2-yl)methyl)amino)-1,6-dihydropyrimidine-5-carboxylate] |  | 0.00^b %
37 | Oc1ccc(-c2cncn2CCc2c[nH]c3ccccc23)cc1 [HGN-0020] |  | 1.26 ± 2.33%
38 | Oc1ccc(-c2cncn2CCc2ccccc2)cc1 [HGN-0022] | 0.00^b % | 
39 | Cn1cncc1C(O)c1ccccc1 (centres unmarked) [HGN-0031] |  | 0.00^b %
40 | CCOC(=O)c1cnc(Nc2ccc(-c3ccccc3)cc2)[nH]c1=O [HGN-0033, ethyl 2-((1,1′-biphenyl)-4-ylamino)-6-oxo-1,6-dihydropyrimidine-5-carboxylate] | 5.07 ± 2.01% | 
41 | CCOC(=O)c1cnc(Nc2ccc(N3CCCCC3)cc2)[nH]c1=O [HGN-0034, ethyl 6-oxo-2-((4-(piperidin-1-yl)phenyl)amino)-1,6-dihydropyrimidine-5-carboxylate] | 86.20 ± 0.16% | 
42 | O=C(O)c1cnc(Nc2ccc(-c3ccccc3)cc2)[nH]c1=O [HGN-0035, 2-((1,1′-biphenyl)-4-ylamino)-6-oxo-1,6-dihydropyrimidine-5-carboxylic acid] | 91.14 ± 1.18% | 
43 | O=C([O-])c1cnc(Nc2ccc(N3CCCCC3)cc2)nc1[O-].[Na+].[Na+] [HGN-0036] | 22.38 ± 21.24% | 
44 | CCOC(=O)c1cnc(NCCc2ccc(Cl)cc2)[nH]c1=O [HGN-0038, Ethyl 2-((4-chlorophenethyl)amino)-6-oxo-1,6-dihydropyrimidine-5-carboxylate] | 0.00^b % | 

Row | SMILES | % Growth Inhibition Endpoint (24 h) | % Growth Inhibition Growth Curve
45 | CCOC(=O)c1cnc(Nc2cccc(-c3ccccc3)c2)[nH]c1=O [HGN-0039] | 0.00^b % | 
46 | O=C([O-])c1cnc(Nc2cccc(-c3ccccc3)c2)nc1[O-].[Na+].[Na+] [HGN-0044, Sodium 2-([1,1′-biphenyl]-3-ylamino)-4-oxidopyrimidine-5-carboxylate] | 1.48 ± 7.90% | 
47 | CCOC(=O)c1cnc(NCc2ccco2)[nH]c1=O [HGN-0047, Ethyl 2-((furan-2-ylmethyl)amino)-6-oxo-1,6-diydropyrimidine-5-carboxylate] | 0.00^b % | 
48 | O=C([O-])c1cnc(NCC2CCCO2)nc1[O-].[Na+].[Na+] (centres unmarked) [HGN-0050] | 32.99 ± 9.22% | 
49 | Oc1ccc(-c2cncn2Cc2ccc(Cl)c(Cl)c2)cc1 [HGN-0092] | 25.41 ± 2.79% | 
50 | Oc1ccc(-c2cncn2Cc2ccc(F)cc2)cc1 [HGN-0093] | 58.12 ± 2.17% | 
51 | Oc1ccc(-c2cncn2CCc2ccc(F)cc2)cc1 [HGN-0095] | 88.27 ± 0.48% | 
52 | Oc1ccc(-c2cncn2CCc2cccc(F)c2)cc1 [HGN-0097] | 4.27 ± 14.54% | 
53 | Oc1ccc(-c2cncn2CCc2ccc(Cl)cc2Cl)cc1 [HGN-0099] | 0.00^b % | 
54 | Nc1ccn([C@@H]2O[C@H](CNC(=O)Cc3cn4ccsc4n3)[C@@H](O)[C@H]2O)c(=O)n1 [HGN-0102] | 0.00^b % | 
55 | Oc1ccc(-c2cncn2Cc2ccccc2F)cc1 [HGN-0106] | 33.79 ± 16.09% | 
56 | Oc1ccc(-c2cncn2CCc2ccccc2F)cc1 [HGN-0107] | 2.75 ± 2.62% | 
57 | Oc1ccc(-c2cncn2Cc2cccc(F)c2)cc1 [HGN-0109] | 24.77 ± 10.79% | 
58 | CCOC(=O)c1cnc(NCCc2ccc(F)cc2)[nH]c1=O [HGN-0111] | 31.31 ± 39.32% | 
59 | O=C([O-])c1cnc(NCCc2ccc(F)cc2)nc1[O-].[Na+].[Na+] [HGN-0112] | 19.82 ± 16.53% | 
60 | CCOC(=O)c1cnc(NCc2ccc(F)cc2)[nH]c1=O [HGN-0113] | 0.00^b % | 
61 | O=C([O-])c1cnc(NCc2ccc(F)cc2)nc1[O-].[Na+].[Na+] [HGN-0114] | 5.94 ± 5.46% | 
62 | CCOC(=O)c1cnc(NCCc2cccc(F)c2)[nH]c1=O [HGN-0115] | 0.00^b % | 
63 | O=C([O-])c1cnc(NCCc2cccc(F)c2)nc1[O-].[Na+].[Na+] [HGN-0116] | 20.46 ± 3.47% | 
64 | CCOC(=O)c1cnc(NCCc2ccc(Cl)cc2Cl)[nH]c1=O [HGN-0117] | 0.00^b % | 

Row | SMILES | % Growth Inhibition Endpoint (24 h) | % Growth Inhibition Growth Curve
65 | CCOC(=O)c1cnc(NCCc2ccccc2Cl)[nH]c1=O [HGN-0119] | 0.00^b % | 
66 | O=C([O-])c1cnc(NCCc2ccccc2Cl)nc1[O-].[Na+].[Na+] [HGN-0120] | 80.30 ± 0.40% | 
67 | CCOC(=O)c1cnc(NCc2ccccc2Cl)[nH]c1=O [HGN-0121] | 0.00^b % | 
68 | O=C([O-])c1cnc(NCc2ccccc2Cl)nc1[O-].[Na+].[Na+] [HGN-0122] | 23.02 ± 8.79% | 
69 | CCOC(=O)c1cnc(NCc2cccc(Cl)c2)[nH]c1=O [HGN-0123] | 0.00^b % | 
70 | O=C([O-])c1cnc(NCc2cccc(Cl)c2)nc1[O-].[Na+].[Na+] [HGN-0124] | 30.67 ± 2.67% | 
71 | CCOC(=O)c1cnc(NCc2ccc(Cl)cc2)[nH]c1=O [HGN-0125] | 23.89 ± 36.14% | 
72 | O=C([O-])c1cnc(NCc2ccc(Cl)cc2)nc1[O-].[Na+].[Na+] [HGN-0126] | 34.34 ± 3.24% | 
73 | CCOC(=O)c1cnc(NCc2cc(Cl)ccc2Cl)[nH]c1=O [HGN-0127] | 3.47 ± 2.20% | 
74 | O=C([O-])c1cnc(NCc2cc(Cl)ccc2Cl)nc1[O-].[Na+].[Na+] [HGN-0128] | 37.46 ± 0.21% | 
75 | CCOC(=O)c1cnc(NCc2ccc(Cl)c(Cl)c2)[nH]c1=O [HGN-0129] | 64.42 ± 2.77% | 
76 | O=C([O-])c1cnc(NCc2ccc(Cl)c(Cl)c2)nc1[O-].[Na+].[Na+] [HGN-0130] | 45.59 ± 2.35% | 
77 | CCOC(=O)c1cnc(NCCc2ccc(Cl)c(Cl)c2)[nH]c1=O [HGN-0131] | 0.00^b % | 
78 | O=C([O-])c1cnc(NCCc2ccc(Cl)c(Cl)c2)nc1[O-].[Na+].[Na+] [HGN-0132] | 72.24 ± 11.83% | 
79 | CCOC(=O)c1cnc(NCc2ccccc2F)[nH]c1=O [HGN-0133] | 0.00^b % | 
80 | O=C([O-])c1cnc(NCc2ccccc2F)nc1[O-].[Na+].[Na+] [HGN-0134] | 26.05 ± 6.37% | 
81 | CCOC(=O)c1cnc(NCCc2c(Cl)cccc2Cl)[nH]c1=O [HGN-0135] | 0.00^b % | 
82 | O=C([O-])c1cnc(NCCc2c(Cl)cccc2Cl)nc1[O-].[Na+].[Na+] [HGN-0136] | 16.71 ± 5.04% | 
83 | COc1cc(-c2cncn2CCc2c[nH]c3ccccc23)ccc1O [HGN-0137] | 0.00^b % | 
